Experimental data from patent US10722484B2, “Methods of cancer treatment” (K-Gen, Inc., priority 2016, dated 2020).
Entries after “also recorded” stand apart in the source; their conditions may differ. Where two headings read alike, the source gives them in different places.

Columns and labels:
[1] = tested on: A549 lung cancer cell line; experiment: Combination viability/proliferation assays (384-well IC50 ratio, 96-well MacSynergy II); format: cell-based; settings: for Ratio ([…] DMSO IC50/combination IC50) / Combination in A549: K101A (synergism/antagonism) / Combination in A549: K101E (synergism/antagonism) / Combination in A549: K102 (synergism/antagonism) / concentration range in which the antagonistic effect was detected: A549; for Ratio ([…] DMSO IC50/combination IC50): NC: no change; for effect in combination with the PKC activator compounds in inhibiting the growth of A549 cells: PKC activator compounds (K101A, K101E, K102); for Combination in A549: K101A (synergism/antagonism): agent assayed in combination with K101A; for Combination in A549: K101A (synergism/antagonism) / Combination in A549: K102 (synergism/antagonism): * 2-3 concentrations, # full concentration ranges; for Combination in A549: K101E (synergism/antagonism): agent assayed in combination with K101E; for Combination in A549: K102 (synergism/antagonism): agent assayed in combination with K102; for concentration range in which the antagonistic effect was detected: with PKC activator compounds (FIG. 10A, 10B), trametinib full range tested, erlotinib lower half of range tested
Procedure: A 96-well MacSynergy II format for combination test was also used. […] The analysis was done with the SQRT(Data) scale and the four parameter Hill curve was fitted using XLfit5.1 (the MacSynergy II Excel Spreadsheet) for the inhibition data. Synergy (positive number) or Antagonism (negative number) volumes were calculated. […] Three-dimensional MacSynergy II graphs were generated where positive values indicated synergism and negative values indicated antagonism.

A549 = experiment: Proliferation assay (CellTiter Glo); format: cell-based; settings: 96 hours
Procedure: (§1) The dose range for most compounds was 4.6 nM-30 μM. The dose ranges for some compounds were adjusted downward to 0.46 nM-3 μM or 0.08 nM-0.5 μM or 0.03 nM-0.2 μM. […] The results are shown in Tables 3-6 for pancreatic cancer, lung cancer, colon/gastric cancer, and leukemia.

AGS = experiment: Proliferation assay (CellTiter Glo); format: cell-based; settings: 96 hours
Procedure: as §1

Capan-1 = experiment: Proliferation assay (CellTiter Glo); format: cell-based; settings: 96 hours
Procedure: as §1

H358 = experiment: Proliferation assay (CellTiter Glo); format: cell-based; settings: HE58, 96 hours
Procedure: as §1

H441 = experiment: Proliferation assay (CellTiter Glo); format: cell-based; settings: 96 hours
Procedure: as §1

H727 = experiment: Proliferation assay (CellTiter Glo); format: cell-based; settings: 96 hours
Procedure: as §1

HCT116 = experiment: Proliferation assay (CellTiter Glo); format: cell-based; settings: 96 hours
Procedure: as §1

KP-4 = experiment: Proliferation assay (CellTiter Glo); format: cell-based; settings: 96 hours
Procedure: as §1

LS180 = experiment: Proliferation assay (CellTiter Glo); format: cell-based; settings: 96 hours
Procedure: as §1

SW620 = experiment: Proliferation assay (CellTiter Glo); format: cell-based; settings: 96 hours
Procedure: as §1

MiaPaCa-2 = experiment: Proliferation assay (CellTiter Glo); format: cell-based; settings: 96 hours
HL60 = experiment: Proliferation assay (CellTiter Glo); format: cell-based, human; settings: 96 hours
Procedure: as §1

THP1 = experiment: Proliferation assay (CellTiter Glo); format: cell-based, human; settings: 96 hours
Procedure: as §1

BxPC-3 = experiment: Proliferation assay (CellTiter Glo); format: cell-based; settings: BxPC-3 (RAS WT); 96 hours
Procedure: as §1
(§2) Other cancer cell lines having wild-type K-RAS status and K-RAS mutation at G12 were also screened using the PKC activator compounds. […] K104 was tested in a range of 0.03 nM-0.2 μM. […] The dose ranges were adjusted downward to 0.46 nM-3 μM for K102 and 0.08 nM-0.5 μM for K103 for some cell lines. The results of the screening of cancer cells lines with wild-type K-RAS status and K-RAS mutations at the G12 positions are presented in Table 7.

Colo205 = experiment: Proliferation assay (CellTiter Glo); format: cell-based; settings: Colo205 (RAS WT); 96 hours
Procedure: as §1, §2

H1915 = experiment: Proliferation assay (CellTiter Glo); format: cell-based; settings: H1915 (RAS WT); 96 hours
Procedure: as §1, §2

H838 = experiment: Proliferation assay (CellTiter Glo); format: cell-based; settings: H838 (RAS WT); 96 hours
Procedure: as §1, §2

HT29 = experiment: Proliferation assay (CellTiter Glo); format: cell-based; settings: HT29 (RAS WT); 96 hours
Procedure: as §1, §2

[2] = in combination with 0.0002 μM K102
[3] = in combination with 0.002 μM K102
[4] = in combination with 0.005 μM K101A
[5] = in combination with 0.02 μM K102
[6] = in combination with 0.05 μM K101A
[7] = in combination with 0.5 μM K101A, ratio >2 synergistic, <0.5 antagonistic

Nc1cc(C(F)(F)F)c(-c2cc(N3CCOCC3)nc(N3CCOCC3)n2)cn1 [BKM-120, 5-[2,6-Di(4-morpholinyl)-4-pyrimidinyl]-4-(trifluoromethyl)-2-pyridinamine]
Ratio ([…] DMSO IC50/combination IC50) [1, 2]: 0.86 | Ratio ([…] DMSO IC50/combination IC50) [1, 3]: 1.24 | Ratio ([…] DMSO IC50/combination IC50) [1, 4]: 0.94 | Ratio ([…] DMSO IC50/combination IC50) [1, 5]: 2.36 | Ratio ([…] DMSO IC50/combination IC50) [1, 6]: 1.21 | Ratio ([…] DMSO IC50/combination IC50) [1, 7]: 2.43 | effect in combination with the PKC activator compounds in inhibiting the growth of A549 cells [1]: strong synergy | Combination in A549: K101A (synergism/antagonism) [1]: Synergism (strong) | Combination in A549: K101E (synergism/antagonism) [1]: None | Combination in A549: K102 (synergism/antagonism) [1]: Synergism (moderate)

CC(=O)OC12CC(C)C3(O)C(C4OC4(CO)CC4(O)C(O)C(C)=CC43)C1C2(C)C (centres unmarked) [Compound K101D]
EC50 (A549; A549 (K-RAS: G12S), absolute EC50, read-out: Ab EC50): > 30 µM | Top Inhibition % (A549; A549, % of top inhibition): 44.4% | EC50 (A549; A549, relative EC50, read-out: Re EC50): 7.72 µM | EC50 (AGS; AGS (gastric, K-RAS: G12D), absolute EC50, read-out: Ab EC50): > 30 µM | Top Inhibition % (AGS; AGS, % of top inhibition): 13.5% | EC50 (Capan-1; Capan-1 (K-RAS: G12V), absolute EC50, read-out: Ab EC50): > 30 µM | Top Inhibition % (Capan-1; Capan-1, % of top inhibition): 22.3% | EC50 (Capan-1; Capan-1, relative EC50, read-out: Re EC50): 8.66 µM | Top Inhibition % (H358; % of top inhibition): 23.0% | EC50 (H358; absolute EC50, read-out: Ab EC50): > 30 µM | EC50 (H358; relative EC50, read-out: Re EC50): 11 µM | EC50 (H441; H441 (K-RAS: G12V), absolute EC50, read-out: Ab EC50): > 30 µM | Top Inhibition % (H441; H441, % of top inhibition): 11.6% | EC50 (H727; H727 (K-RAS: G12V), absolute EC50, read-out: Ab EC50): > 30 µM | Top Inhibition % (H727; H727, % of top inhibition): 31.8% | EC50 (H727; H727, relative EC50, read-out: Re EC50): 8.37 µM | EC50 (HCT116; HCT116 (K-RAS: G13D), absolute EC50, read-out: Ab EC50): > 30 µM | Top Inhibition % (HCT116; HCT116, % of top inhibition): 3.0% | EC50 (KP-4; KP-4 (K-RAS: G12C), absolute EC50, read-out: Ab EC50): > 30 µM | Top Inhibition % (KP-4; KP-4, % of top inhibition): 47.9% | EC50 (KP-4; KP-4, relative EC50, read-out: Re EC50): 5.47 µM | EC50 (LS180; LS180 (K-RAS: G12D), absolute EC50, read-out: Ab EC50): > 30 µM | Top Inhibition % (LS180; LS180, % of top inhibition): 8.2% | EC50 (SW620; SW620 (K-RAS: G12V), absolute EC50, read-out: Ab EC50): > 30 µM | Top Inhibition % (SW620; SW620, % of top inhibition): 0.0% | EC50 (MiaPaCa-2; MiaPaCa-2 (K-RAS: G12C), absolute EC50, read-out: Ab EC50): > 30 µM | Top Inhibition % (MiaPaCa-2; MiaPaCa-2, % of top inhibition): 18.6% | EC50 (HL60; HL60 (N-RAS: Q61L), absolute EC50, read-out: Ab EC50): > 30 µM | Top Inhibition % (HL60; HL60, % of top inhibition): 14.4% | EC50 (THP1; THP1 (N-RAS: G12D), absolute EC50, read-out: Ab EC50): > 30 µM | Top Inhibition % (THP1; THP1, % of top inhibition): 33.6% | EC50 (THP1; THP1, relative EC50, read-out: Re EC50): 14 µM | Top Inhibition % (BxPC-3): 37.49% | Top Inhibition % (Colo205): 42.3% | Top Inhibition % (H1915): 28.6% | Top Inhibition % (H838): 27.7% | Top Inhibition % (HT29): 10.0%

C#Cc1cccc(Nc2ncnc3cc(OCCOC)c(OCCOC)cc23)c1 [Erlotinib]
concentration range in which the antagonistic effect was detected [1]: 0.3 to 2.5 µM | effect in combination with the PKC activator compounds in inhibiting the growth of A549 cells [1]: Moderate antagonistic effect

CC(=O)Nc1cccc(-n2c(=O)n(C3CC3)c(=O)c3c(Nc4ccc(I)cc4F)n(C)c(=O)c(C)c32)c1 [Trametinib]
Ratio ([…] DMSO IC50/combination IC50) [1, 2]: 0.72 | Ratio ([…] DMSO IC50/combination IC50) [1, 3]: 0.80 | Ratio ([…] DMSO IC50/combination IC50) [1, 4]: 1.36 | Ratio ([…] DMSO IC50/combination IC50) [1, 5]: 0.44 | Ratio ([…] DMSO IC50/combination IC50) [1, 6]: 1.10 | Ratio ([…] DMSO IC50/combination IC50) [1, 7]: 0.50 | concentration range in which the antagonistic effect was detected [1]: 0.003 to 0.2 µM

CC(C)C[C@H](NC(=O)[C@H](CCc1ccccc1)NC(=O)CN1CCOCC1)C(=O)N[C@@H](Cc1ccccc1)C(=O)N[C@@H](CC(C)C)C(=O)[C@@]1(C)CO1 [Carfilzomib]
effect in combination with the PKC activator compounds in inhibiting the growth of A549 cells [1]: insignificant synergism or antagonism | Combination in A549: K101A (synergism/antagonism) [1]: None | Combination in A549: K102 (synergism/antagonism) [1]: None

Cc1cc(-c2ncc(CC(=O)Nc3ccc(-c4cnccn4)cn3)cc2C)ccn1 [LGK-974, 2-[5-methyl-6-(2-methylpyridin-4-yl)pyridin-3-yl]-N-(5-pyrazin-2-ylpyridin-2-yl)acetamide]
Combination in A549: K101A (synergism/antagonism) [1]: Synergism (minor) | Combination in A549: K102 (synergism/antagonism) [1]: Synergism (minor)

Nc1ccn([C@@H]2O[C@H](CO)[C@@H](O)C2(F)F)c(=O)n1 [Gemcitabine]
Ratio ([…] DMSO IC50/combination IC50) [1, 2]: 0.72 | Ratio ([…] DMSO IC50/combination IC50) [1, 3]: 0.76 | Ratio ([…] DMSO IC50/combination IC50) [1, 4]: 0.80 | Ratio ([…] DMSO IC50/combination IC50) [1, 5]: 0.69 | Ratio ([…] DMSO IC50/combination IC50) [1, 6]: 0.91 | Ratio ([…] DMSO IC50/combination IC50) [1, 7]: 0.97 | effect in combination with the PKC activator compounds in inhibiting the growth of A549 cells [1]: insignificant synergism or antagonism | Combination in A549: K101A (synergism/antagonism) [1]: None | Combination in A549: K101E (synergism/antagonism) [1]: None | Combination in A549: K102 (synergism/antagonism) [1]: None

O=C1[O][Pt]2([NH][C@@H]3CCCC[C@H]3[NH]2)[O]C1=O [Oxaliplatin]
effect in combination with K101A or K102 in inhibiting the growth of A549 cells [1]: synergy

CS(=O)(=O)CCNCc1ccc(-c2ccc3ncnc(Nc4ccc(OCc5cccc(F)c5)c(Cl)c4)c3c2)o1 [Lapatinib]
effect in combination with the PKC activator compounds in inhibiting the growth of A549 cells [1]: no or insignificant antagonistic effect; also recorded: insignificant synergism or antagonism

CO[C@H]1C[C@@H]2CC[C@@H](C)[C@@](O)(O2)C(=O)C(=O)N2CCCC[C@H]2C(=O)O[C@H]([C@H](C)C[C@@H]2CC[C@@H](OCCO)[C@H](OC)C2)CC(=O)[C@H](C)/C=C(\C)[C@@H](O)[C@@H](OC)C(=O)[C@H](C)C[C@H](C)/C=C/C=C/C=C/1C [Everolimus]
Ratio ([…] DMSO IC50/combination IC50) [1, 3]: >2 | Ratio ([…] DMSO IC50/combination IC50) [1, 5]: >2 | Ratio ([…] DMSO IC50/combination IC50) [1, 6]: >2 | Ratio ([…] DMSO IC50/combination IC50) [1, 7]: >2 | Ratio ([…] DMSO IC50/combination IC50) ([1]; in combination with […] K101E): >2 | effect in combination with the PKC activator compounds in inhibiting the growth of A549 cells [1]: strong synergy | Combination in A549: K101A (synergism/antagonism) [1]: Synergism | Combination in A549: K101E (synergism/antagonism) [1]: Synergism. | Combination in A549: K102 (synergism/antagonism) [1]: Synergism

CN[C@@H]1C[C@H]2O[C@@](C)([C@@H]1OC)n1c3ccccc3c3c4c(c5c6ccccc6n2c5c31)C(=O)NC4 [STS, staurosporine]
effect in combination with the PKC activator compounds in inhibiting the growth of A549 cells [1]: synergistic effects | Combination in A549: K101A (synergism/antagonism) [1]: Synergism | Combination in A549: K101E (synergism/antagonism) [1]: Synergism | Combination in A549: K102 (synergism/antagonism) [1]: Synergism
